Laboratory results: patent US6423720B1, “Pyrimidine compounds and methods for making and using the same” (Duquesne University of the Holy Ghost, priority 2001, dated 2002)
Marks after values point to notes of the source that are not given here.

What was measured:
[1] = biological target: T1, dihydrofolate reductase (DHFR) from rat liver (RL) (Rattus norvegicus, UniProt Q920D2); assay: Inhibition of dihydrofolate reductase from rat liver (RL DHFR); assay type: biochemical; conditions: for IC50: read-out: RL DHFR Inhibitory Concentration (IC50)
T1 construct: the IC50 value of the DHFR from rat liver (RL); from tissue; host or cells: rat liver
T1 sequence (Q920D2 1-187): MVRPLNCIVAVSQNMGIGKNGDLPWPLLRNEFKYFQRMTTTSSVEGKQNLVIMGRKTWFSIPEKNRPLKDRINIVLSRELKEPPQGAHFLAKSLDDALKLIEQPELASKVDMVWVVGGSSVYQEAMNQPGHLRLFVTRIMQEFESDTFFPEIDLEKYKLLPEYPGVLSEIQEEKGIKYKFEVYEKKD
Source text: (§1) The following examples are intended to illustrate the invention, and should not be construed as limiting the invention in any way. Standard test procedures familiar to those skilled in the art were used in the examples, such as those procedures described by Gangjee, A., et al., in “5-Arylthio-substituted 2-amino-4-oxo-6-methyl pyrrolo[2,3-d]pyrimidine antifolates as thymidylate synthase inhibitors and antitumor agents”, J. Med. Chem., Vol. 38, pp. 4495-4502 (1995); “Effect of bridge region variation on antifolate and antitumor activity of classical 5-substituted 2,4-diamino furo [2,3-d]pyrimidines”, J. Med. Chem., Vol. 38, pp. 3798-3805 (1995); and “Novel 2 ,4-diamino-5-substituted-pyrrolo[2,3-d]pyrimidines As Classical and Non-Classical Antifolate Inhibitors of Dihydrofolate Reductases”, J. Med. Chem., Vol. 38, pp. 2158-2165 (Jun. 6, 1995) and references disclosed therein.
(§2) The compounds described in Table 1 were evaluated as inhibitors of dihydrofolate reductase (DHFR) from Toxoplasmosis gondii (Tx) and rat liver (RL). The evaluation of the compounds consisted of determining the IC50 values and selectivity ratios of each compound against Tx DHFR and RL DHFR. The IC50 value is the concentration of a compound required to inhibit the dihydrofolate reductase activity by 50 percent (%). […] The selectivity ratio is a measure of the selectivity of a compound for Tx DHFR and is expressed as the IC50 value of the DHFR from rat liver (RL) divided by the IC50 value of the Tx DHFR. For example, the selectivity ratio of a compound is calculated by the following formula: [formula]

[2] = biological target: T2, dihydrofolate reductase (DHFR) from Toxoplasmosis gondii (Tx) (Toxoplasma gondii, UniProt Q07422); assay: Inhibition of dihydrofolate reductase from Toxoplasmosis gondii (Tx DHFR); assay type: biochemical; conditions: for Selectivity Ratio: RL DHFR/Tx DHFR: IC50 RL DHFR divided by IC50 Tx DHFR; for IC50: Toxoplasma gondii DHFR, read-out: Tx DHFR Inhibitory Concentration (IC50)
T2 sequence (Q07422 1-610): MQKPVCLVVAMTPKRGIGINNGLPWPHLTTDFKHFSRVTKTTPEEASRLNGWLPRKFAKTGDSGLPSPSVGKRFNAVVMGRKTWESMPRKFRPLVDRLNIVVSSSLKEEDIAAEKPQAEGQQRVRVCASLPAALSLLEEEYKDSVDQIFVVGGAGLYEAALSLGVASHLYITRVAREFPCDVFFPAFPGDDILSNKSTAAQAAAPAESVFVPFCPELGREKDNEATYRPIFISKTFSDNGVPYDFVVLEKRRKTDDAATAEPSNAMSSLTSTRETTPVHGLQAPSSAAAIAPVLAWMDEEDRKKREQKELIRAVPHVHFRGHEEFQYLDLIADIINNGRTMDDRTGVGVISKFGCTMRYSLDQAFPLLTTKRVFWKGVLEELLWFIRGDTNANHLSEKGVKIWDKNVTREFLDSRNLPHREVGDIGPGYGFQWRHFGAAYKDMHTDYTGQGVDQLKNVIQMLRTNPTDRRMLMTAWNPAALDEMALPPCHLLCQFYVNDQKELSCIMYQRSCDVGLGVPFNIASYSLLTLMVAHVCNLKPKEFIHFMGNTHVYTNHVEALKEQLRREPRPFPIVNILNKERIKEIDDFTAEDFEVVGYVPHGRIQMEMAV
Source text: as §1, §2

[3] = biological target: T3, DHFR from Pneumocystis carinii (PC) (Pneumocystis carinii, UniProt P16184); assay: Inhibition of DHFR from Pneumocystis carinii (Pc); assay type: biochemical
T3 sequence (P16184 1-206): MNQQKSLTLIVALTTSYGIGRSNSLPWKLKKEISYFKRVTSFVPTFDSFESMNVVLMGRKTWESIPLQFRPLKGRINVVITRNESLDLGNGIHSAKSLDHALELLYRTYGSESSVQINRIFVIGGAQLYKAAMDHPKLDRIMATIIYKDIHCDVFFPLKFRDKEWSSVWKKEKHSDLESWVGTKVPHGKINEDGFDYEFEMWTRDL

Structure (SMILES) | IC50 [1] | Selectivity Ratio: RL DHFR/Tx DHFR [2] | IC50 [2] | other results
Nc1nc(N)c(Sc2cccc3ccccc23)c(=O)[nH]1 [Compound 165] | 97.2 µM | 198.4 | 0.49 µM | 
Nc1nc(N)c(Sc2ccc(Cl)cc2)c(=O)[nH]1 [Compound 167] | 19.8 µM | 90.0 | 0.22 µM | 
COc1ccc(OC)c(Sc2c(N)nc(N)[nH]c2=O)c1 [Compound 169] | 28.5 µM | 142.5 | 0.2 µM | 
Nc1nc(N)c(Sc2ccc(C(=O)O)cc2)c(=O)[nH]1 [Compound 170] | 122 µM | 2.3 | 53.8 µM | RL/Pc selectivity ratio ([3]; IC50 RL DHFR divided by IC50 Pc DHFR): 1.4; IC50 ([3]; Pneumocystis carinii DHFR): 89.5 µM
Nc1nc(N)c(Sc2ccccc2Cl)c(=O)[nH]1 [Compound 171] | 4.7 µM | 13.4 | 0.35 µM | 
Nc1nc(N)c(Sc2ccc3ccccc3c2)c(=O)[nH]1 [Compound 174] | 30 µM | 85.7 | 0.35 µM | 
COc1cccc(Sc2c(N)nc(N)[nH]c2=O)c1 [Compound 175] | 53.4 µM | 92.1 | 0.58 µM | 
Nc1nc(N)c(Sc2c(Cl)cccc2Cl)c(=O)[nH]1 [Compound 176] | 17.5 µM | 10.3 | 1.7 µM | 
Nc1nc(N)c(Sc2ccc(Cl)cc2Cl)c(=O)[nH]1 [Compound 177] | 2.3 µM | 16.4 | 0.14 µM | 
Nc1nc(N)c(Sc2ccncc2)c(=O)[nH]1 [Compound 179] | 101 µM | 11.9 | 8.5 µM | 
Nc1nc(N)c(SCc2ccc(Cl)cc2)c(=O)[nH]1 [Compound 180] |  | >3.16# | 16.6 µM | RL DHFR inhibition at 60 μM ([1]; @ 60 μM): 26% @ 60 μM
COc1ccc(Sc2c(N)nc(N)[nH]c2=O)cc1OC [Compound 181] |  | >35.2# | 1.9 µM | inhibition at 67 µM ([1]; @ 67 μM): 19%
Nc1nc(N)c(Sc2cc(Cl)cc(Cl)c2)c(=O)[nH]1 [Compound 184] | 20.2 µM | 74.8 | 0.27 µM | 
Nc1nc(N)c(Sc2ccc([N+](=O)[O-])cc2)c(=O)[nH]1 [Compound 185, 2,4-diamino-6-oxo-5-(4′-nitrophenylthio)pyrimidine] | 15 µM | 55.6 | 0.27 µM | melting point: > 300 °C (dec.)
Nc1nc(N)c(SCc2ccccc2)c(=O)[nH]1 [Compound 187] | 40.7 µM | 7.7 | 5.3 µM | 
Nc1nc(N)c(Sc2ccccn2)c(=O)[nH]1 [Compound 188] | 117 µM | 24.9 | 4.7 µM | 
Nc1nc(N)c(SCc2ccc(Cl)c(Cl)c2)c(=O)[nH]1 [Compound 190] | 24.2 µM | 16.1 | 1.5 µM | 
COc1cccc(CSc2c(N)nc(N)[nH]c2=O)c1 [Compound 191] | 66.8 µM | 10.1 | 6.6 µM | 
Nc1nc(N)c(SCc2ccc(Cl)cc2Cl)c(=O)[nH]1 [Compound 193] | 7 µM | 10 | 0.7 µM | 
Cc1ccc(CSc2c(N)nc(N)[nH]c2=O)cc1 [Compound 194] | 193 µM | 25.4 | 7.6 µM | 
Cc1cccc(CSc2c(N)nc(N)[nH]c2=O)c1 [Compound 196] |  | >7.18 # | 11.5 µM | RL DHFR inhibition at 90 μM ([1]; @ 90 μM): 3% @ 90 μM
Nc1nc(N)c(SCc2ccccc2Cl)c(=O)[nH]1 [Compound 197] | 8.2 µM | 3.7 | 2.2 µM | 
COc1ccccc1Sc1c(N)nc(N)[nH]c1=O [Compound 198] | 263 µM | 45.3 | 5.8 µM | 
Nc1nc(N)c(Sc2nc(-c3ccccc3)cs2)c(=O)[nH]1 [Compound 199] | 53 µM | 4.3 | 12.2 µM | 
Nc1nc(N)c(SCc2ccc(Br)cc2)c(=O)[nH]1 [Compound 202] | 46.7 µM | 24.6 | 1.9 µM | 
